Results as given in patent publication US8426419B2, “Tyrosine kinase inhibitors containing a zinc binding moiety” (Curis, Inc., priority 2006, dated 2013).

What was measured:
HDAC = HDAC fluorimetric assay kit (AK-500, Biomol), HeLa nuclear extract; assay type: biochemical
Procedure: HDAC inhibitors is screened using an HDAC fluorimetric assay kit (AK-500, Biomol, Plymouth Meeting, Pa.).
Each assay is setup as follows: Defrost all kit components and kept on ice until use. […] Prepare dilutions of Trichostatin A (TSA, positive control) and tested compounds in assay buffer (5× of final concentration). Dilute Fluor de Lys™ Substrate in assay buffer to 100 uM (50 fold=2× final). Dilute Fluor de Lys™ developer concentrate 20-fold (e.g. 50 μl plus 950 μl Assay Buffer) in cold assay buffer. Second, dilute the 0.2 mM Trichostatin A 100-fold in the 1× Developer (e.g. 10 μl in 1 ml; final Trichostatin A concentration in the 1× Developer=2 μM; final concentration after addition to HDAC/Substrate reaction=1 μM). Add Assay buffer, dilute trichostatin A or test inhibitor to appropriate wells of the microtiter plate. Add diluted HeLa extract or other HDAC sample to all wells except for negative controls.

[1] = target: T1, human Abl1 (Pro118-Ser553) (Homo sapiens, UniProt P00519); experiment: HTScan tyrosine kinase assay, Abl1; assay type: biochemical; conditions: read-out: ABL IC50
T1 construct: human Abl1 (Pro118-Ser553); GST (N); purchased Cell Signaling Technologies; host or cells: baculovirus expression system
T1 sequence (P00519 118-553): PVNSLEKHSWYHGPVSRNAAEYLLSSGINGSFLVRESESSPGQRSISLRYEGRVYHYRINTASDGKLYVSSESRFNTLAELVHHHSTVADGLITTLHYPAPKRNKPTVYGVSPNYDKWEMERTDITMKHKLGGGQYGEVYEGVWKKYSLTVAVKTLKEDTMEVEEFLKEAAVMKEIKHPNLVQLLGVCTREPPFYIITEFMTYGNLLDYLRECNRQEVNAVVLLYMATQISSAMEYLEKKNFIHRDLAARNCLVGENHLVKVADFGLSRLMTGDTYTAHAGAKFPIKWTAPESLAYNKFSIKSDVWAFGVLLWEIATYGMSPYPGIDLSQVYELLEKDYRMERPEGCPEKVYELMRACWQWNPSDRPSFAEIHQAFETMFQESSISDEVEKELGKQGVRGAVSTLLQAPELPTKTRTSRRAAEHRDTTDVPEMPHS
Procedure: (§1) The proteins are purified by one-step affinity chromatography using glutathione-agarose. An anti-phosphotyrosine monoclonal antibody, P-Tyr-100, is used to detect phosphorylation of biotinylated substrate peptides (Abl1 and Src, Biotin-Signal Transduction Protein (Tyr160); c-Kit, Biotinylated-KDR (Tyr996); PDGFR-β, Biotinylated-FLT3 (Tyr589)). […] Data are plotted using GraphPad Prism (v4.0a) and IC50's are calculated using a sigmoidal dose response curve fitting algorithm.
(§2) Each assay is setup as follows: 100 μl of 10 mM ATP is added to 1.25 ml 6 mM substrate peptide. […] The enzyme is immediately transferred from −80° C. to ice. The enzyme is allowed to thaw on ice. […] 25 μl of 2× ATP/substrate cocktail is added to 25 μl/well preincubated reaction cocktail/compound. The reaction plate is incubated at room temperature for 30 minutes. […] 100 μl/well primary antibody is added and the mixture is incubated at room temperature for 60 minutes. The plates are again washed three times with 200 μl/well PBS/T. Europium labeled anti-mouse IgG is diluted 1:500 in PBS/T with 1% BSA. 100 μl/well diluted antibody is added and the mixture is incubated at room temperature for 30 minutes. The plate is washed five times with 200 μl/well PBS/T. 100 μl/well DELFIA® Enhancement Solution is added and the mixture is incubated at room temperature for 5 minutes. 615 nm fluorescence emission is detected using an appropriate Time-Resolved Plate Reader.

[2] = target: T2, full length human Src (Met1-Leu536) (Homo sapiens, UniProt P12931); experiment: HTScan tyrosine kinase assay, Src; assay type: biochemical
T2 construct: full length human Src (Met1-Leu536); GST (N); purchased Cell Signaling Technologies; host or cells: baculovirus expression system
T2 sequence (P12931 whole entry): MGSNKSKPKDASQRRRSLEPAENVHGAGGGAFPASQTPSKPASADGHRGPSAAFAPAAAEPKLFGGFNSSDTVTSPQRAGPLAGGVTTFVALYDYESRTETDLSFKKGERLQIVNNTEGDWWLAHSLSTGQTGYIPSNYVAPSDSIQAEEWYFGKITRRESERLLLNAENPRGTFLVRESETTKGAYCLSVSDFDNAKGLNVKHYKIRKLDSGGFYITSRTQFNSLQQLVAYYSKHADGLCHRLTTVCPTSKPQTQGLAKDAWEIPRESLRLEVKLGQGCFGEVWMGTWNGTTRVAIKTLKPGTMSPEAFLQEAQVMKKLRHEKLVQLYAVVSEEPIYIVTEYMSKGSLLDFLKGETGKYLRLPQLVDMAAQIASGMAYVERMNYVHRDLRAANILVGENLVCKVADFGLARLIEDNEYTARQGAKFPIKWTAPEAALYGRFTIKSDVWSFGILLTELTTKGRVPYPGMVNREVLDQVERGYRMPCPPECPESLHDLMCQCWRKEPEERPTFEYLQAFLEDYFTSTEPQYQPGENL
Procedure: as §1, §2

[3] = target: T3, human c-Kit (Thr544-Val976) (Homo sapiens, UniProt P10721); experiment: HTScan tyrosine kinase assay, c-Kit; assay type: biochemical
T3 construct: human c-Kit (Thr544-Val976); GST (N); purchased Cell Signaling Technologies; host or cells: baculovirus expression system
T3 sequence (P10721 544-976): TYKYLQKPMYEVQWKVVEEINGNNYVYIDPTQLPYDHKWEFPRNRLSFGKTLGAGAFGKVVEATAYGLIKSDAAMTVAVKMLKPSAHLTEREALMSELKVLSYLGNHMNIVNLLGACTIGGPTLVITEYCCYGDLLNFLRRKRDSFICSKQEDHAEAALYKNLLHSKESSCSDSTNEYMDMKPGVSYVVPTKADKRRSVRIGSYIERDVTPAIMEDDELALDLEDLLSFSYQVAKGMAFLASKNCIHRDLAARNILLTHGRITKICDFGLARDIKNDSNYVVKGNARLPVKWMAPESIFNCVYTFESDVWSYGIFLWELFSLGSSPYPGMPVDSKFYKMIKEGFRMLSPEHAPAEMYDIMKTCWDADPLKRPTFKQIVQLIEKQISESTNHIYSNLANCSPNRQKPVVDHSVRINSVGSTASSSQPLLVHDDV
Procedure: as §1, §2

[4] = target: T4, human PDGFR-beta (Arg561-Leu1106) (Homo sapiens, UniProt P09619); experiment: HTScan tyrosine kinase assay, PDGFR-beta; assay type: biochemical; conditions: read-out: PDGFb IC50
T4 construct: fragment (Arg561-Leu1106); GST (N); His6 (N); thrombin cleavage site (N); purchased Cell Signaling Technologies; host or cells: baculovirus expression system
T4 sequence (P09619 561-1106): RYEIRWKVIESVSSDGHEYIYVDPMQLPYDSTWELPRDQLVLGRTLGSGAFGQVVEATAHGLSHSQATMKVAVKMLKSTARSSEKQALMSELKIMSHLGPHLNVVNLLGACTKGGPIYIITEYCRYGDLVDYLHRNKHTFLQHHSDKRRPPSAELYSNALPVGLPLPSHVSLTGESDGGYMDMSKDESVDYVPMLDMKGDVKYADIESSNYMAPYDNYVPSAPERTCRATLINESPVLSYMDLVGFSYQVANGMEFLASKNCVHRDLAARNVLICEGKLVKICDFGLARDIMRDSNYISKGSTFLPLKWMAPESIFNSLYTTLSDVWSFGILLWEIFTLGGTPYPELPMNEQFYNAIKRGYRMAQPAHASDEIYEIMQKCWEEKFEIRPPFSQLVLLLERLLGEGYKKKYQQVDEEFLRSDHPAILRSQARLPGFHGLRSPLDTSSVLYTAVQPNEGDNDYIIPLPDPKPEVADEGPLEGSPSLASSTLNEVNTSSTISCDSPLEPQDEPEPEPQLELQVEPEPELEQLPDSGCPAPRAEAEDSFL
Procedure: as §1, §2

Lyn = Lyn (Homo sapiens, UniProt P07948); experiment: Lyn assay (Table B); assay type: biochemical
Sequence of Lyn (P07948 whole entry, species assumed): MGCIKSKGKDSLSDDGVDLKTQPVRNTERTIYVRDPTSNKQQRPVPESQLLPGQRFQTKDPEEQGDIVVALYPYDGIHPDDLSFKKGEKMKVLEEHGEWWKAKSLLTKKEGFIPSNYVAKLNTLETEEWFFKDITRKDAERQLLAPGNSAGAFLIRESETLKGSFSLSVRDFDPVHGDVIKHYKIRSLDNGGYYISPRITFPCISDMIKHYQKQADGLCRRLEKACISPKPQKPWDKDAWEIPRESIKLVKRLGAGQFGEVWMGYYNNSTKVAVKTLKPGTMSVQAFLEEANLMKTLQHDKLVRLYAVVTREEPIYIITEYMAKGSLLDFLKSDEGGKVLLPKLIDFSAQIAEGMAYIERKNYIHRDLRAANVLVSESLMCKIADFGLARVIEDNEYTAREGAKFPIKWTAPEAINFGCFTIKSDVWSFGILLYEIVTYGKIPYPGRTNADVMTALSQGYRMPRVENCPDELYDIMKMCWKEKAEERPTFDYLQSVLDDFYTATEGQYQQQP

Lck = Lck (Homo sapiens, UniProt P06239); experiment: Lck assay (Table B); assay type: biochemical
Sequence of Lck (P06239 whole entry, species assumed): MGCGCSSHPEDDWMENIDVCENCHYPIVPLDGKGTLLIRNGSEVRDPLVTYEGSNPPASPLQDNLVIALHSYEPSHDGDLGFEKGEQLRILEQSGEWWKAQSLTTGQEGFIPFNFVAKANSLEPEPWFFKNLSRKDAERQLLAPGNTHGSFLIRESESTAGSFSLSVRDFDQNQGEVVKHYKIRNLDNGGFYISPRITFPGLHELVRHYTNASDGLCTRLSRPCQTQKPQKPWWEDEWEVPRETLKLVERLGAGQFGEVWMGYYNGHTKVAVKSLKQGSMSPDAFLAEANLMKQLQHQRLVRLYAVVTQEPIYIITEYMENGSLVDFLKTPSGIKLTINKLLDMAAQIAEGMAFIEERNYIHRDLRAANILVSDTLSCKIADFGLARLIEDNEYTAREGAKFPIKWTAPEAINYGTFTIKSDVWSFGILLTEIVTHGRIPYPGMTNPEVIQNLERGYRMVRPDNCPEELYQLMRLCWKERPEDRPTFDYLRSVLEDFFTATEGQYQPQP

Compound | IC50 (HDAC) [nM] | IC50 [1] [nM] | IC50 [2] [nM] | IC50 [3] [nM] | IC50 [4] [nM] | IC50 (Lyn) [nM] | IC50 (Lck) [nM] | melting point
Cc1nc(Nc2ncc(C(=O)Nc3c(C)cccc3Cl)s2)cc(N2CCN(CCCCCCC(=O)NO)CC2)n1 [Compound 6, N-(2-chloro-6-methylphenyl)-2-(6-(4-(7-(hydroxyamino)-7-oxoheptyl)piperazin-1-yl)-2-methylpyrimidin-4-ylamino)thiazole-5-carboxamide] | 100 to 1000 | < 100 | < 100 | < 100 | < 100 | < 100 |  | 
Cc1nc(NCCNCC(=O)NO)cc(Nc2ncc(C(=O)Nc3c(C)cccc3Cl)s2)n1 [Compound 7, N-(2-chloro-6-methylphenyl)-2-(6-(2-(2-(hydroxyamino)-2-oxoethylamino)ethylamino)-2-methylpyrimidin-4-ylamino)thiazole-5-carboxamide] | > 10000 | < 100 | < 100 |  |  |  |  | 
Cc1nc(Nc2ncc(C(=O)Nc3c(C)cccc3Cl)s2)cc(N2CCN(CCC(=O)NO)CC2)n1 [Compound 2, N-(2-Chloro-6-methylphenyl)-2-(6-(4-(3-(hydroxyamino)-3-oxopropyl)piperazin-1-yl)-2-methylpyrimidin-4-ylamino)thiazole-5-carboxamide] | 1000 to 10000 | < 100 | < 100 |  | < 100 |  |  | 
Cc1nc(NCCCCCC(=O)NO)cc(Nc2ncc(C(=O)Nc3c(C)cccc3Cl)s2)n1 [Compound 23, N-(2-chloro-6-methylphenyl)-2-(6-(6-(hydroxyamino)-6-oxohexylamino)-2-methylpyrimidin-4-ylamino)thiazole-5-carboxamide] | < 100 | < 100 | < 100 | < 100 | < 100 | < 100 | < 100 | 
Cc1nc(NCCNCCCCCC(=O)NO)cc(Nc2ncc(C(=O)Nc3c(C)cccc3Cl)s2)n1 [Compound 11, N-(2-chloro-6-methylphenyl)-2-(6-(2-(6-(hydroxyamino)-6-oxohexylamino)ethylamino)-2-methylpyrimidin-4-ylamino)thiazole-5-carboxamide] | < 100 | < 100 | < 100 | < 100 | < 100 | < 100 | < 100 | 
Cc1nc(NCCCCCCC(=O)NO)cc(Nc2ncc(C(=O)Nc3c(C)cccc3Cl)s2)n1 [Compound 24, N-(2-chloro-6-methylphenyl)-2-(6-(7-(hydroxyamino)-7-oxoheptylamino)-2-methylpyrimidin-4-ylamino)thiazole-5-carboxamide] | < 100 | < 100 | < 100 | < 100 | < 100 | < 100 | < 100 | 150.7 °C (dec.)
Cc1nc(Nc2ncc(C(=O)Nc3c(C)cccc3Cl)s2)cc(N2CCN(CCCCC(=O)NO)CC2)n1 [Compound 4, N-(2-chloro-6-methylphenyl)-2-(6-(4-(5-(hydroxyamino)-5-oxopentyl)piperazin-1-yl)-2-methylpyrimidin-4-ylamino)thiazole-5-carboxamide] | 100 to 1000 | < 100 | < 100 |  | < 100 |  |  | 

Results, then the compound that gave them:

IC50 (HDAC) [nM] | IC50 [1] [nM] | IC50 [2] [nM] | IC50 [3] [nM] | IC50 [4] [nM] | IC50 (Lyn) [nM] | IC50 (Lck) [nM] | melting point | Compound
1000 to 10000 | < 100 | < 100 |  |  |  |  |  | Cc1nc(Nc2ncc(C(=O)Nc3c(C)cccc3Cl)s2)cc(N2CCN(CCCC(=O)NO)CC2)n1 [Compound 3, N-(2-chloro-6-methylphenyl)-2-(6-(4-(4-(hydroxyamino)-4-oxobutyl)piperazin-1-yl)-2-methylpyrimidin-4-ylamino)thiazole-5-carboxamide]
< 100 | < 100 | < 100 | < 100 | < 100 | < 100 |  |  | Cc1nc(Nc2ncc(C(=O)Nc3c(C)cccc3Cl)s2)cc(N2CCN(CCCCCC(=O)NO)CC2)n1 [Compound 5, N-(2-chloro-6-methylphenyl)-2-(6-(4-(6-(hydroxyamino)-6-oxohexyl)piperazin-1-yl)-2-methylpyrimidin-4-ylamino)thiazole-5-carboxamide]
> 10000 | 100 to 1000 | 100 to 1000 |  |  |  |  |  | Cc1nc(N)cc(N(CC(=O)NO)c2ncc(C(=O)Nc3c(C)cccc3Cl)s2)n1 [Compound 30]
1000 to 10000 | < 100 | < 100 |  | < 100 |  |  |  | Cc1nc(Nc2ncc(C(=O)Nc3c(C)cccc3Cl)s2)cc(N2CCN(CC(=O)NO)CC2)n1 [Compound 1, N-(2-chloro-6-methylphenyl)-2-(6-(4-(2-(hydroxyamino)-2-oxoethyl)piperazin-1-yl)-2-methylpyrimidin-4-ylamino)thiazole-5-carboxamide]
